Results as given in ChEMBL document CHEMBL1909294, “Translating clinical findings into knowledge in drug safety evaluation--drug induced liver injury prediction system (DILIps)” (PLoS Comput Biol, 2011).

Columns and labels:
[1] = test system: Hepatotoxicity;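 on HepSE Combined Scores: combined hepatic side effect score as listed in the training data of the Drug Induced Liver Injury Prediction System (DILIps)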;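 on HepSE bilirubinemia: bilirubinemia hepatic side effect score drawn from the DILIps training data, a prediction system for drug-induced liver injury; call rule not given here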;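 on HepSE cholelithiasis: hepatic side effect score for cholelithiasis, drawn from the DILIps training data for predicting drug-induced liver injury; call rule not given here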;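 on HepSE cirrhosis: cirrhosis hepatic side effect score taken from the DILIps (drug-induced liver injury prediction) training set; call rule not given here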;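 on HepSE elevated liver function tests: hepatic side effect score for raised liver function tests, as recorded in the DILIps training set used for predicting drug-induced liver injury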; on HepSE liver disease: call rule not given here;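 on HepSE liver function tests abnormal: hepatic side effect score taken from the DILIps (drug-induced liver injury prediction system) training data, here covering abnormal liver function test findings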
[2] = test system: Hepatotoxicity; remark: listed apart in the source;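 on HepSE Combined Scores: combined hepatic side effect score as listed in the training data of the Drug Induced Liver Injury Prediction System (DILIps)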;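 on HepSE bilirubinemia: bilirubinemia hepatic side effect score drawn from the DILIps training data, a prediction system for drug-induced liver injury; call rule not given here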;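 on HepSE cholelithiasis: hepatic side effect score for cholelithiasis, drawn from the DILIps training data for predicting drug-induced liver injury; call rule not given here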;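 on HepSE cirrhosis: cirrhosis hepatic side effect score taken from the DILIps (drug-induced liver injury prediction) training set; call rule not given here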;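 on HepSE elevated liver function tests: hepatic side effect score for raised liver function tests, as recorded in the DILIps training set used for predicting drug-induced liver injury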; on HepSE liver disease: call rule not given here;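 on HepSE liver function tests abnormal: hepatic side effect score taken from the DILIps (drug-induced liver injury prediction system) training data, here covering abnormal liver function test findings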
[3] = test system: Hepatotoxicity; remark: listed apart in the source;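 on HepSE Combined Scores: combined hepatic side effect score as listed in the training data of the Drug Induced Liver Injury Prediction System (DILIps)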;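 on HepSE bilirubinemia: bilirubinemia hepatic side effect score drawn from the DILIps training data, a prediction system for drug-induced liver injury; call rule not given here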;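 on HepSE cholelithiasis: hepatic side effect score for cholelithiasis, drawn from the DILIps training data for predicting drug-induced liver injury; call rule not given here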;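 on HepSE cirrhosis: cirrhosis hepatic side effect score taken from the DILIps (drug-induced liver injury prediction) training set; call rule not given here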;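 on HepSE elevated liver function tests: hepatic side effect score for raised liver function tests, as recorded in the DILIps training set used for predicting drug-induced liver injury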; on HepSE liver disease: call rule not given here
[4] = test system: Hepatotoxicity; remark: listed apart in the source;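 on HepSE Combined Scores: combined hepatic side effect score as listed in the training data of the Drug Induced Liver Injury Prediction System (DILIps)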;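 on HepSE bilirubinemia: bilirubinemia hepatic side effect score drawn from the DILIps training data, a prediction system for drug-induced liver injury; call rule not given here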;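 on HepSE cholelithiasis: hepatic side effect score for cholelithiasis, drawn from the DILIps training data for predicting drug-induced liver injury; call rule not given here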;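 on HepSE cirrhosis: cirrhosis hepatic side effect score taken from the DILIps (drug-induced liver injury prediction) training set; call rule not given here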;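 on HepSE elevated liver function tests: hepatic side effect score for raised liver function tests, as recorded in the DILIps training set used for predicting drug-induced liver injury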; on HepSE liver disease: call rule not given here
[5] = test system: Hepatotoxicity; remark: listed apart in the source; on HepSE liver disease: call rule not given here
[6] = test system: Hepatotoxicity; remark: listed apart in the source; on HepSE liver disease: call rule not given here
[7] = test system: Hepatotoxicity; remark: listed apart in the source
[8] = test system: Hepatotoxicity; remark: listed apart in the source
[9] = test system: Hepatotoxicity; remark: listed apart in the source
[10] = test system: Hepatotoxicity; remark: listed apart in the source
[11] = test system: Hepatotoxicity; remark: listed apart in the source
[12] = test system: Hepatotoxicity; remark: listed apart in the source
[13] = test system: Hepatotoxicity; remark: listed apart in the source
[14] = test system: Hepatotoxicity; remark: listed apart in the source

## c1ccc2[nH]c(-c3cscn3)nc2c1 [THIABENDAZOLE]
[1]
  HepSE_bilirubinemia: 0
[2]
  HepSE_liver disease: 0
[3]
  HepSE_cirrhosis: 0
[4]
  HepSE_elevated liver function tests: 0
[5]
  HepSE_cholelithiasis: 0
[6]
  HepSE_Combined Scores: 2
[7]
  HepSE_hepatic necrosis: 0
[8]
  HepSE_liver function tests abnormal: 0
[9]
  HepSE_liver fatty: 0
[10]
  HepSE_hepatic failure: 1
[11]
  HepSE_jaundice: 1
[12]
  HepSE_hepatitis: 0
[13]
  HepSE_hepatomegaly: 0
[14]
  HepSE_cholecystitis: 0

## CSc1ccc2c(c1)N(CCC1CCCCN1C)c1ccccc1S2 (stereo unspecified) [THIORIDAZINE]
[1]
  HepSE_bilirubinemia: 0
[2]
  HepSE_liver disease: 0
[3]
  HepSE_cirrhosis: 0
[4]
  HepSE_elevated liver function tests: 0
[5]
  HepSE_cholelithiasis: 0
[6]
  HepSE_Combined Scores: 1
[7]
  HepSE_hepatic necrosis: 0
[8]
  HepSE_liver function tests abnormal: 0
[9]
  HepSE_liver fatty: 0
[10]
  HepSE_hepatic failure: 0
[11]
  HepSE_jaundice: 1
[12]
  HepSE_hepatitis: 0
[13]
  HepSE_hepatomegaly: 0
[14]
  HepSE_cholecystitis: 0

## S=P(N1CC1)(N1CC1)N1CC1 [THIOTEPA]
[1]
  HepSE_bilirubinemia: 1
[2]
  HepSE_liver disease: 0
[3]
  HepSE_cirrhosis: 0
[4]
  HepSE_elevated liver function tests: 0
[5]
  HepSE_cholelithiasis: 0
[6]
  HepSE_Combined Scores: 1
[7]
  HepSE_hepatic necrosis: 0
[8]
  HepSE_liver function tests abnormal: 0
[9]
  HepSE_liver fatty: 0
[10]
  HepSE_hepatic failure: 0
[11]
  HepSE_jaundice: 0
[12]
  HepSE_hepatitis: 0
[13]
  HepSE_hepatomegaly: 0
[14]
  HepSE_cholecystitis: 0

## Cc1ccsc1C(=CCCN1CCC[C@@H](C(=O)O)C1)c1sccc1C [TIAGABINE]
[1]
  HepSE_bilirubinemia: 0
[2]
  HepSE_liver disease: 0
[3]
  HepSE_cirrhosis: 0
[4]
  HepSE_elevated liver function tests: 0
[5]
  HepSE_cholelithiasis: 1
[6]
  HepSE_Combined Scores: 4
[7]
  HepSE_hepatic necrosis: 0
[8]
  HepSE_liver function tests abnormal: 1
[9]
  HepSE_liver fatty: 0
[10]
  HepSE_hepatic failure: 0
[11]
  HepSE_jaundice: 0
[12]
  HepSE_hepatitis: 0
[13]
  HepSE_hepatomegaly: 1
[14]
  HepSE_cholecystitis: 1

## Clc1ccccc1CN1CCc2sccc2C1 [TICLOPIDINE]
[1]; Liver
  HepSE_bilirubinemia: 0
[2]; Liver
  HepSE_liver disease: 0
[3]; Liver
  HepSE_cirrhosis: 0
[4]; Liver
  HepSE_elevated liver function tests: 0
[5]; Liver
  HepSE_cholelithiasis: 0
[6]; Liver
  HepSE_Combined Scores: 4
[7]; Liver
  HepSE_hepatic necrosis: 1
[8]; Liver
  HepSE_liver function tests abnormal: 0
[9]; Liver
  HepSE_liver fatty: 0
[10]; Liver
  HepSE_hepatic failure: 1
[11]; Liver
  HepSE_jaundice: 1
[12]; Liver
  HepSE_hepatitis: 1
[13]; Liver
  HepSE_hepatomegaly: 0
[14]; Liver
  HepSE_cholecystitis: 0

## CN(C)c1cc(NC(=O)CNC(C)(C)C)c(O)c2c1C[C@H]1C[C@H]3[C@H](N(C)C)C(O)=C(C(N)=O)C(=O)[C@@]3(O)C(O)=C1C2=O [TIGECYCLINE]
[1]
  HepSE_bilirubinemia: 1
[2]
  HepSE_liver disease: 0
[3]
  HepSE_cirrhosis: 0
[4]
  HepSE_elevated liver function tests: 0
[5]
  HepSE_cholelithiasis: 0
[6]
  HepSE_Combined Scores: 4
[7]
  HepSE_hepatic necrosis: 0
[8]
  HepSE_liver function tests abnormal: 1
[9]
  HepSE_liver fatty: 0
[10]
  HepSE_hepatic failure: 1
[11]
  HepSE_jaundice: 1
[12]
  HepSE_hepatitis: 0
[13]
  HepSE_hepatomegaly: 0
[14]
  HepSE_cholecystitis: 0

## O=P(O)(O)C(Sc1ccc(Cl)cc1)P(=O)(O)O [TILUDRONIC ACID]
[1]
  HepSE_bilirubinemia: 0
[2]
  HepSE_liver disease: 0
[3]
  HepSE_cirrhosis: 0
[4]
  HepSE_elevated liver function tests: 0
[5]
  HepSE_cholelithiasis: 0
[6]
  HepSE_Combined Scores: 0
[7]
  HepSE_hepatic necrosis: 0
[8]
  HepSE_liver function tests abnormal: 0
[9]
  HepSE_liver fatty: 0
[10]
  HepSE_hepatic failure: 0
[11]
  HepSE_jaundice: 0
[12]
  HepSE_hepatitis: 0
[13]
  HepSE_hepatomegaly: 0
[14]
  HepSE_cholecystitis: 0

## CC(C)(C)NC[C@H](O)COc1nsnc1N1CCOCC1 [TIMOLOL]
[1]
  HepSE_bilirubinemia: 0
[2]
  HepSE_liver disease: 0
[3]
  HepSE_cirrhosis: 0
[4]
  HepSE_elevated liver function tests: 0
[5]
  HepSE_cholelithiasis: 0
[6]
  HepSE_Combined Scores: 1
[7]
  HepSE_hepatic necrosis: 0
[8]
  HepSE_liver function tests abnormal: 0
[9]
  HepSE_liver fatty: 0
[10]
  HepSE_hepatic failure: 0
[11]
  HepSE_jaundice: 0
[12]
  HepSE_hepatitis: 0
[13]
  HepSE_hepatomegaly: 1
[14]
  HepSE_cholecystitis: 0

## CCS(=O)(=O)CCn1c([N+](=O)[O-])cnc1C [TINIDAZOLE]
[1]
  HepSE_bilirubinemia: 0
[2]
  HepSE_liver disease: 0
[3]
  HepSE_cirrhosis: 0
[4]
  HepSE_elevated liver function tests: 0
[5]
  HepSE_cholelithiasis: 0
[6]
  HepSE_Combined Scores: 0
[7]
  HepSE_hepatic necrosis: 0
[8]
  HepSE_liver function tests abnormal: 0
[9]
  HepSE_liver fatty: 0
[10]
  HepSE_hepatic failure: 0
[11]
  HepSE_jaundice: 0
[12]
  HepSE_hepatitis: 0
[13]
  HepSE_hepatomegaly: 0
[14]
  HepSE_cholecystitis: 0
